Results from the supplement of paper PMC10307832.

Compound: COc1cc(Nc2c(C#N)cnc3cc(OCCCN4CCN(C)CC4)c(OC)cc23)c(Cl)cc1Cl [Bosutinib] + Cc1nc(NC(=O)N2CCC[C@H]2C(N)=O)sc1-c1ccnc(C(C)(C)C(F)(F)F)c1 [Alpelisib] (partner 2 µM)
Experiment: relative viability (nuclei count vs DMSO), 5 days (fraction); higher = more cells survive
Outline: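 A single step with final 0.05% Triton X-100, 1% formaldehyde and 1 ug/ml Hoechst fixed the cells and stained nuclei 5 days after treatment. Lung cancer cell lines in 1536-well plates had been treated by pin tool the day after seeding with one drug alone or a fixed anchor-drug dose plus five library-drug doses (not always all listed) in √10 steps, and nuclei were counted on 4× images. Relative viability is the ratio of nuclei in treated wells to nuclei in vehicle wells, taken as the median of duplicate plates.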

| Cell Line | relative viability (first compound 0.01 µM) | relative viability (first compound 0.03162 µM) | relative viability (first compound 0.1 µM) | relative viability (first compound 1 µM) |
| --- | --- | --- | --- | --- |
| NCI-H838 | 0.961 | 0.879 | 0.864 | 0.432 |
| NCI-H3122 | 0.769 | 0.797 | 0.821 | 0.993 |
| SK-MES-1 | 0.876 | 0.971 | 0.999 | 1.06 |
| NCI-H1944 | 0.849 | 0.826 | 0.826 | 0.614 |
| LK-2 | 1.11 | 1.08 | 1.05 | 0.761 |
| PC-3 [JPC-3] | 0.962 | 1.03 | 1.02 | 0.937 |
| COR-L23 | 0.803 | 0.799 | 0.747 | 0.836 |
| NCI-H1355 | 0.871 | 0.816 | 0.893 | 0.72 |
| NCI-H460 | 0.5 | 0.533 | 0.428 | 0.201 |
| NCI-H1993 | 0.635 | 0.69 | 0.641 | 0.669 |
| HCC-15 | 0.844 | 0.9 | 0.924 | 0.85 |
| NCI-H23 | 0.674 | 0.666 | 0.519 | 0.546 |
| NCI-H1395 | 1.23 | 1.09 | 1.18 | 0.913 |
| NCI-H1666 | 0.982 | 0.947 | 1.07 | 0.865 |
| NCI-H2405 | 0.886 | 0.759 | 0.837 | 0.365 |
| NCI-H2009 | 1.2 | 1.15 | 1.1 | 0.767 |
| HCC-78 | 0.349 | 0.31 | 0.393 | 0.32 |
| NCI-H2170 | 0.821 | 0.866 | 0.797 | 0.711 |
| NCI-H1793 | 0.669 | 0.603 | 0.711 | 0.49 |
| HCC-366 | 0.532 | 0.416 | 0.305 | 0.111 |
| NCI-H1651 | 0.928 | 0.961 | 0.854 | 0.734 |
| LC-2-ad | 0.883 | 0.975 | 0.92 | 0.864 |
| HCC-827 | 0.972 | 0.971 | 1.03 | 0.576 |
| SK-LU-1 | 0.949 | 1.31 | 1.12 | 0.46 |

| Cell Line | relative viability (first compound 0.01 µM) | relative viability (first compound 0.03162 µM) | relative viability (first compound 0.1 µM) | relative viability (first compound 1 µM) |
| --- | --- | --- | --- | --- |
| ABC-1 | 0.938 | 0.944 | 0.897 | 0.731 |
| NCI-H1703 | 0.351 | 0.378 | 0.294 | 0.261 |
| COR-L 105 | 0.869 | 1.27 | 0.871 | 0.565 |
| LOU-NH91 | 0.807 | 0.7 | 0.638 | 0.46 |
| NCI-H661 | 0.407 | 0.881 | 0.88 | 0.477 |
| LU99A | 0.53 | 0.545 | 0.568 | 0.674 |
| SW 1573 | 0.834 | 0.787 | 0.767 | 0.65 |
| HOP-62 | 0.977 | 1 | 1.1 | 0.889 |
| UMC-11 | 1 | 1.04 | 0.934 | 0.847 |
| LCLC-103H | 0.992 | 1.06 | 0.94 | 0.871 |
| NCI-H1734 | 0.642 | 0.632 | 0.748 | 0.59 |
| EKVX | 0.894 | 0.89 | 0.847 | 0.476 |
| HARA | 0.842 | 0.817 | 0.874 | 0.502 |
| EMC-BAC-2 | 0.757 | 0.731 | 0.723 | 0.657 |
| PC-14 | 0.91 | 0.9 | 0.828 | 0.323 |
| NCI-H520 | 0.96 | 0.786 | 0.968 | 0.66 |
| NCI-H1755 | 0.916 | 0.961 | 0.998 | 0.739 |
| NCI-H2087 | 1.18 | 1.15 | 1.19 | 1 |
| NCI-H2023 | 0.581 | 0.655 | 0.538 | 0.426 |
| CAL-12T | 1.09 | 1.09 | 1.2 | 0.787 |
| NCI-H2085 | 0.978 | 0.976 | 0.903 | 0.988 |
| NCI-H650 | 1.15 | 1.12 | 1.21 | 1.18 |
| LCLC-97TM1 | 0.232 | 0.244 | 0.371 | 0.344 |
| NCI-H2126 | 0.712 | 0.781 | 0.733 | 0.685 |

| Cell Line | relative viability (first compound 0.01 µM) | relative viability (first compound 0.03162 µM) | relative viability (first compound 0.1 µM) | relative viability (first compound 1 µM) |
| --- | --- | --- | --- | --- |
| 201T | 1 | 1.02 | 1.01 | 0.909 |
| NCI-H1915 | 1.03 | 1.07 | 1.1 | 1.06 |
| BEN | 0.986 | 1.04 | 0.888 | 0.669 |
| NCI-H2347 | 1 | 1.07 | 1.06 | 1.12 |
| H3255 | 0.686 | 0.743 | 0.669 | 0.198 |
| NCI-H441 | 0.475 | 0.689 | 0.733 | 1.11 |
| NCI-H2228 | 0.772 | – | 0.75 | 0.587 |
| NCI-H1975 | 0.615 | 0.688 | 0.67 | 0.433 |
| NCI-H647 | 1.34 | 1.33 | 1.03 | 0.543 |
| A-427 | 1.03 | 1.11 | 1.03 | 0.978 |
| LXF-289 | 1.03 | 0.986 | 1.01 | 1.06 |
| NCI-H727 | 0.59 | 0.549 | 0.537 | 0.449 |
| NCI-H1437 | 0.939 | 0.954 | 1.04 | 0.862 |
| RERF-LC-KJ | 0.702 | 0.834 | 0.756 | 0.678 |
| NCI-H1792 | 0.774 | 0.677 | 0.757 | 0.505 |
| HCC-44 | 0.749 | 0.877 | 0.761 | 0.772 |
| EPLC-272H | 0.937 | 1.15 | 1.03 | 0.854 |
| IA-LM | 0.832 | 0.733 | 0.931 | 0.674 |
| NCI-H358 | 0.862 | 0.817 | 0.771 | 0.585 |
| NCI-H596 | 0.505 | 0.992 | 0.945 | 0.348 |
| NCI-H322M | 0.665 | 0.741 | 0.717 | 0.81 |
| NCI-H1563 | 0.905 | 0.904 | 0.859 | 0.63 |
